Assay results as given in patent publication US20230085307A1, “PYRIDAZINONE COMPOUND AND HERBICIDE” (NISSAN CHEMICAL CORPORATION, priority 2019, published 2023).

Columns and labels:
persian speedwell [1] = experiment: Test Example 5: herbicidal effect by foliage application, plastic box (Table 20, symbol R); format: in vivo, Persian speedwell (Veronica persica); settings: foliage application, AAH 320 g/ha, evaluated three weeks after application
Summary of the method: (§1)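 Sow seeds spot-wise in sterilized diluvial soil; cover with ~1.5 cm soil. Grow 14 days in greenhouse, 25° C. to 30° C. Spray foliage with emulsion diluted to predetermined amount. Rate effect after 3 weeks.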

velvetleaf [2] = experiment: Test Example 5: herbicidal effect by foliage application, plastic box (Table 20, symbol M); format: in vivo, velvetleaf (Abutilon theophrasti); settings: foliage application, AAH 320 g/ha, evaluated three weeks after application
Summary of the method: as §1

windgrass [3] = experiment: Test Example 5: herbicidal effect by foliage application, plastic box (Table 20, symbol L); format: in vivo, windgrass (Apera spica-venti); settings: foliage application, AAH 320 g/ha, evaluated three weeks after application
Summary of the method: as §1

green foxtail [4] = experiment: Test Example 5: herbicidal effect by foliage application, plastic box (Table 20, symbol G); format: in vivo, green foxtail (Setaria viridis); settings: foliage application, AAH 320 g/ha, evaluated three weeks after application
Summary of the method: as §1

redroot pigweed [5] = experiment: Test Example 5: herbicidal effect by foliage application, plastic box (Table 20, symbol N); format: in vivo, redroot pigweed (Amaranthus retroflexus); settings: foliage application, AAH 320 g/ha, evaluated three weeks after application
Summary of the method: as §1

blackgrass [6] = experiment: Test Example 5: herbicidal effect by foliage application, plastic box (Table 20, symbol J); format: in vivo, blackgrass (Alopecurus myosuroides); settings: foliage application, AAH 320 g/ha, evaluated three weeks after application
Summary of the method: as §1

lambsquarters [7] = experiment: Test Example 5: herbicidal effect by foliage application, plastic box (Table 20, symbol O); format: in vivo, lambsquarters (Chenopodium album); settings: foliage application, AAH 320 g/ha, evaluated three weeks after application
Summary of the method: as §1

rice flat sedge = experiment: Test Example 3: herbicidal effect by foliage application, Wagner pot (Table 18, symbol E); format: in vivo, rice flat sedge (Cyperus iria); settings: amount of applied herbicide 320 g/ha
Summary of the method: (§2)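 Plants were sown in alluvial soil held under 0.1–0.5 cm standing water and grown 14 days in a greenhouse at 25–30 °C. An emulsifiable formulation, water-diluted to the set dose, was then sprayed onto the foliage, and effects were scored three weeks later using previously defined criteria.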

windgrass [8] = experiment: Test Example 4: herbicidal effect by soil treatment (Table 19, symbol L); format: in vivo, windgrass (Apera spica-venti); settings: amount of applied herbicide 320 g/ha
Summary of the method: (§3)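 Applied as a water-diluted emulsion, the compound was sprayed onto soil covering newly sown seeds. Evaluation came three weeks after application, in a greenhouse held at 25° C. to 30° C.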

Italian ryegrass [9] = experiment: Test Example 4: herbicidal effect by soil treatment (Table 19, symbol K); format: in vivo, Italian ryegrass (Lolium multiflorum); settings: amount of applied herbicide 320 g/ha
Summary of the method: as §3

barnyard grass [10] = experiment: Test Example 3: herbicidal effect by foliage application, Wagner pot (Table 18, symbol H); format: in vivo, barnyard grass (Echinochloa crus-galli); settings: amount of applied herbicide 320 g/ha
Summary of the method: as §2

barnyard grass [11] = experiment: Test Example 5: herbicidal effect by foliage application, plastic box (Table 20, symbol H); format: in vivo, barnyard grass (Echinochloa crus-galli); settings: foliage application, AAH 320 g/ha, evaluated three weeks after application
Summary of the method: as §1

lambsquarters [12] = experiment: Test Example 4: herbicidal effect by soil treatment (Table 19, symbol O); format: in vivo, lambsquarters (Chenopodium album); settings: amount of applied herbicide 320 g/ha
Summary of the method: as §3

southern crabgrass [13] = experiment: Test Example 5: herbicidal effect by foliage application, plastic box (Table 20, symbol F); format: in vivo, southern crabgrass (Digitaria ciliaris); settings: foliage application, AAH 320 g/ha, evaluated three weeks after application
Summary of the method: as §1

false cleavers = experiment: Test Example 5: herbicidal effect by foliage application, plastic box (Table 20, symbol Q); format: in vivo, false cleavers (Galium spurium); settings: foliage application, AAH 320 g/ha, evaluated three weeks after application
Summary of the method: as §1

wild oat [14] = experiment: Test Example 4: herbicidal effect by soil treatment (Table 19, symbol I); format: in vivo, wild oat (Avena fatua); settings: amount of applied herbicide 320 g/ha
Summary of the method: as §3

Italian ryegrass [15] = experiment: Test Example 5: herbicidal effect by foliage application, plastic box (Table 20, symbol K); format: in vivo, Italian ryegrass (Lolium multiflorum); settings: foliage application, AAH 320 g/ha, evaluated three weeks after application
Summary of the method: as §1

persian speedwell [16] = experiment: Test Example 4: herbicidal effect by soil treatment (Table 19, symbol R); format: in vivo, Persian speedwell (Veronica persica); settings: amount of applied herbicide 320 g/ha
Summary of the method: as §3

blackgrass [17] = experiment: Test Example 4: herbicidal effect by soil treatment (Table 19, symbol J); format: in vivo, blackgrass (Alopecurus myosuroides); settings: amount of applied herbicide 320 g/ha
Summary of the method: as §3

barnyard grass [18] = experiment: Test Example 4: herbicidal effect by soil treatment (Table 19, symbol H); format: in vivo, barnyard grass (Echinochloa crus-galli); settings: amount of applied herbicide 320 g/ha
Summary of the method: as §3

green foxtail [19] = experiment: Test Example 4: herbicidal effect by soil treatment (Table 19, symbol G); format: in vivo, green foxtail (Setaria viridis); settings: amount of applied herbicide 320 g/ha
Summary of the method: as §3

velvetleaf [20] = experiment: Test Example 4: herbicidal effect by soil treatment (Table 19, symbol M); format: in vivo, velvetleaf (Abutilon theophrasti); settings: amount of applied herbicide 320 g/ha
Summary of the method: as §3

chickweed [21] = experiment: Test Example 5: herbicidal effect by foliage application, plastic box (Table 20, symbol P); format: in vivo, common chickweed (Stellaria media); settings: foliage application, AAH 320 g/ha, evaluated three weeks after application
Summary of the method: as §1

wild oat [22] = experiment: Test Example 5: herbicidal effect by foliage application, plastic box (Table 20, symbol I); format: in vivo, wild oat (Avena fatua); settings: foliage application, AAH 320 g/ha, evaluated three weeks after application
Summary of the method: as §1

chickweed [23] = experiment: Test Example 4: herbicidal effect by soil treatment (Table 19, symbol P); format: in vivo, common chickweed (Stellaria media); settings: amount of applied herbicide 320 g/ha
Summary of the method: as §3

Chinese sprangletop = experiment: Test Example 3: herbicidal effect by foliage application, Wagner pot (Table 18, symbol D); format: in vivo, chinese sprangletop (Leptochloa chinensis); settings: amount of applied herbicide 320 g/ha
Summary of the method: as §2

redroot pigweed [24] = experiment: Test Example 4: herbicidal effect by soil treatment (Table 19, symbol N); format: in vivo, redroot pigweed (Amaranthus retroflexus); settings: amount of applied herbicide 320 g/ha
Summary of the method: as §3

southern crabgrass [25] = experiment: Test Example 4: herbicidal effect by soil treatment (Table 19, symbol F); format: in vivo, southern crabgrass (Digitaria ciliaris); settings: amount of applied herbicide 320 g/ha
Summary of the method: as §3

Cc1nn(C)c(=O)c(-c2c(-c3ccc(OC(F)F)cc3)sc3ccc(F)cc23)c1OS(=O)(=O)C(C)C [2-309]
R: persian speedwell, herbicidal effect (criteria 0-5) (persian speedwell [1]): 5 (Herbicidal rate of 90% or more (almost completely withered))
M: velvetleaf, herbicidal effect (criteria 0-5) (velvetleaf [2]): 5 (Herbicidal rate of 90% or more (almost completely withered))
L: windgrass, herbicidal effect (criteria 0-5) (windgrass [3]): 1 (Herbicidal rate of 5% or more and less than 20%)
G: green foxtail, herbicidal effect (criteria 0-5) (green foxtail [4]): 5 (Herbicidal rate of 90% or more (almost completely withered))
N: redroot pigweed, herbicidal effect (criteria 0-5) (redroot pigweed [5]): 5 (Herbicidal rate of 90% or more (almost completely withered))
J: blackgrass, herbicidal effect (criteria 0-5) (blackgrass [6]): 3 (Herbicidal rate of 40% or more and less than 70%)
O: lambsquarters, herbicidal effect (criteria 0-5) (lambsquarters [7]): 5 (Herbicidal rate of 90% or more (almost completely withered))
herbicidal effect on E: rice flat sedge (rice flat sedge): 5 (Herbicidal rate of 90% or more (almost completely withered))
herbicidal effect on L: windgrass (windgrass [8]): 0 (Herbicidal rate of 5% or less (almost no effect))
herbicidal effect on K: Italian ryegrass (Italian ryegrass [9]): 0 (Herbicidal rate of 5% or less (almost no effect))
herbicidal effect on H: barnyard grass (barnyard grass [10]): 5 (Herbicidal rate of 90% or more (almost completely withered))
H: barnyard grass, herbicidal effect (criteria 0-5) (barnyard grass [11]): 5 (Herbicidal rate of 90% or more (almost completely withered))
herbicidal effect on O: lambsquarters (lambsquarters [12]): 4 (Herbicidal rate of 70% or more and less than 90%)
F: southern crabgrass, herbicidal effect (criteria 0-5) (southern crabgrass [13]): 0 (Herbicidal rate of 5% or less (almost no effect))
Q: false cleavers, herbicidal effect (criteria 0-5) (false cleavers): 4 (Herbicidal rate of 70% or more and less than 90%)
herbicidal effect on I: wild oat (wild oat [14]): 0 (Herbicidal rate of 5% or less (almost no effect))
K: Italian ryegrass, herbicidal effect (criteria 0-5) (Italian ryegrass [15]): 4 (Herbicidal rate of 70% or more and less than 90%)
herbicidal effect on R: persian speedwell (persian speedwell [16]): 5 (Herbicidal rate of 90% or more (almost completely withered))
herbicidal effect on J: blackgrass (blackgrass [17]): 0 (Herbicidal rate of 5% or less (almost no effect))
herbicidal effect on H: barnyard grass (barnyard grass [18]): 0 (Herbicidal rate of 5% or less (almost no effect))
herbicidal effect on G: green foxtail (green foxtail [19]): 0 (Herbicidal rate of 5% or less (almost no effect))
herbicidal effect on M: velvetleaf (velvetleaf [20]): 1 (Herbicidal rate of 5% or more and less than 20%)
P: chickweed, herbicidal effect (criteria 0-5) (chickweed [21]): 5 (Herbicidal rate of 90% or more (almost completely withered))
I: wild oat, herbicidal effect (criteria 0-5) (wild oat [22]): 1 (Herbicidal rate of 5% or more and less than 20%)
herbicidal effect on P: chickweed (chickweed [23]): 3 (Herbicidal rate of 40% or more and less than 70%)
herbicidal effect on D: Chinese sprangletop (Chinese sprangletop): 3 (Herbicidal rate of 40% or more and less than 70%)
herbicidal effect on N: redroot pigweed (redroot pigweed [24]): 5 (Herbicidal rate of 90% or more (almost completely withered))
herbicidal effect on F: southern crabgrass (southern crabgrass [25]): 0 (Herbicidal rate of 5% or less (almost no effect))
